# US7378427B2, “Processes for preparing 6-alkyl-5-arylsulfonyl-dihydrophenanthridines” (Wyeth, priority 2004, dated 2008)
# Tests used:
# C57BL/6 mice = assay: Uterine wet weight increase in ovariectomized C57BL/6 mice; assay type: in vivo; details: EE 0.01 mg/kg/day, test compound 10 mg/kg/day, gavage once daily for 5 weeks, compared to vehicle control
# Procedure: Ovariectomized C57BL/6 mice (16-20 g) (Taconic) were separated into groups of 8. After 5-7 days of recuperation, the mice were fed a chow diet or an atherogenic diet (15.75% fat, 1.25% cholesterol and 0.5% sodium cholate) (Purina diet #21539). EE or test compound was administered once daily by gavage in a methylcellulose/tween vehicle (0.1 ml per mouse) for 5 weeks. At the end of the experimental period, the liver was collected and uterine wet weight was recorded.
# IL-6 = assay: HAECT-1 IL-6 expression assay (ELISA) in Ad5-wt-ER infected cells (IL-1β induced); assay type: cell-based, human; details: Ad5-wt-ER infected HAECT-1 cells; for IC50: IL-1β, IL-6 ELISA; for IL-6 Efficacy: relative to the maximal inhibition observed with E2
# Procedure: (§1) T-175 flasks of 100% confluent HAECT-1 cells (immortalized human aortic endothelial cells) were washed with 8 mL of HBSS (HEPES buffered saline solution) and infected for four hours with 6 mL of a 1:10 dilution of Ad5-wt-hERα virus (an adenovirus transfection vector that mediates CMV promoter driven expression of human ERα) in phenol red free Endothelial Cell Basal medium (Clonetics, San Diego Calif., Catalog #CC-3129) containing 0.25% bovine serum albumin (EBM-BSA). After four hours, the cells were washed with EBM-BSA and incubated overnight in the same medium. Following overnight incubation, the cells were washed with EBM-BSA and infected for 2 hours with 6 mL of a 1:10 dilution of Ad5-3×(NFκB). Luc virus (Adenovirus luciferase expression vector driven by 3 repeats of the MHC NFκb site 5′ to the thymidine kinase promoter) in EBM-BSA. After two hours, the cells were washed and incubated at 34° C. for 1 hour. The cells were then washed, trypsinized, counted and resuspended in 95% FBS/5% dimethylsulfoxide at a concentration of 4×10^6 cells/mL, frozen as 1 or 5 mL aliquots in cryo-vials and stored at −150° C. Control (no ER infection) cells were processed as above without Ad5-wt-hERα virus infection.
# ERα infected HAECT-1 cells or control cells were thawed, diluted 42× in warm EBM-BSA, plated into 96-well plates at 0.1 mL/well and incubated for 4 h at 34° C. Test compounds were added to the cells as 2× stocks in EBM-BSA containing 2 ng/mL IL-1β (R&D Systems) and plates were returned to the incubator (34° C.). After 15-20 h, 100 μL aliquots of media were removed from the cells and assayed for IL-6 content using a BioSource human IL-6 ELISA Kit. Cells were subsequently washed with 300 μL of Dulbecco's phosphate buffered saline and lysed in 50 μL of Cell Culture Lysis Reagent (Promega). Luciferase was determined on a Wallac Victor^2 Luminometer (Gaithersburg, Md.) using 10 μL of lysate and mixing with 100 μL of Promega Luciferase Assay reagent. Creatine kinase was determined from the rate of increase in A340 following addition of 100 μL of CK assay reagent (Sigma, cat. No 47-10) to the remainder of the cell lysate.
# (§2) For IC50 and EC50 calculations, mean IL-6, luciferase or CK values versus log10 of the compound concentration were fitted to a four parameter logistic equation. The IC50/EC50 value, ‘Hill slope’, upper and lower limits of the curve were iteratively estimated.
# NF-κB = assay: HAECT-1 NF-κB luciferase reporter assay in Ad5-wt-ER infected cells (IL-1β induced); assay type: cell-based, human; details: Ad5-wt-ER infected HAECT-1 cells
# Procedure: Control (no ER infection) cells were processed as above without Ad5-wt-hERα virus infection.
# Cells were subsequently washed with 300 μL of Dulbecco's phosphate buffered saline and lysed in 50 μL of Cell Culture Lysis Reagent (Promega). Luciferase was determined on a Wallac Victor^2 Luminometer (Gaithersburg, Md.) using 10 μL of lysate and mixing with 100 μL of Promega Luciferase Assay reagent. Creatine kinase was determined from the rate of increase in A340 following addition of 100 μL of CK assay reagent (Sigma, cat. No 47-10) to the remainder of the cell lysate.
# as §2
# creatine kinase (CK) = assay: HAECT-1 creatine kinase (CK) expression assay in Ad5-wt-ER infected cells; assay type: cell-based, human; details: relative to the maximal stimulation observed with E2; Ad5-wt-ER infected HAECT-1 cells
# Procedure: as §1, with “Luc virus (Adenovirus luciferase expression vector driven by 3 repeats of the MHC NFκb site 5′ to the thymidine kinase promoter) in EBM-BSA. After two hours, the cells were washed and incubated at 34° C. for 1 hour.” left out, “Control (no ER infection) cells were processed as above without Ad5-wt-hERα virus infection.” left out
# ERα infected HAECT-1 cells or control cells were thawed, diluted 42× in warm EBM-BSA, plated into 96-well plates at 0.1 mL/well and incubated for 4 h at 34° C. […] Luciferase was determined on a Wallac Victor^2 Luminometer (Gaithersburg, Md.) using 10 μL of lysate and mixing with 100 μL of Promega Luciferase Assay reagent. Creatine kinase was determined from the rate of increase in A340 following addition of 100 μL of CK assay reagent (Sigma, cat. No 47-10) to the remainder of the cell lysate. […]
SMILES,"Uterine Wet Weight Increase, Efficacy (%) (C57BL/6 mice)","Uterine Wet Weight Increase, Fold Increase (C57BL/6 mice)","IC50 (IL-6; Homo sapiens, HAECT1) [nM]",IL-6 Efficacy (IL-6) [%],melting point [°C],"IC50 (NF-κB; Homo sapiens, HAECT1, IL-1β, luciferase reporter) [nM]",NF-κB Efficacy (NF-κB; relative to the maximal inhibition observed with E2) [%],IC50 (IL-6) [nM],CK Efficacy (creatine kinase (CK)) [%]
"C#C[C@]1(O)CC[C@H]2[C@@H]3CCc4cc(O)ccc4[C@H]3CC[C@@]21C [EE, reference compound]",100,5.0,,,,,,,
"C[C@H]1c2cc(F)ccc2-c2ccccc2N1S(=O)(=O)c1ccc(O)cc1 [Example 8, 4-[(S)-8-Fluoro-6-methyl-6H-phenanthridine-5-sulfonyl]-phenol]",0,0,303,118,193,59,99,,
"C[C@]12CC[C@@H]3c4ccc(O)cc4CC[C@H]3[C@@H]1CC[C@@H]2O [Example E2, 17-β-estradiol, reference compound]",,,,100,,,,1.7,100
"C[C@H]1c2cc(F)ccc2-c2ccccc2N1S(=O)(=O)c1ccc(OS(N)(=O)=O)cc1 [Example 22, 4-{[(6S)-8-Fluoro-6-methylphenanthridin-5(6H)-yl]sulfonyl}phenyl sulfamate]",,,,,165.5 to 167.3,,,,
